Legend:
Format in all cases: in vivo
Septoria nodorum = assay: Test C: wheat glume blotch, preventive spray on wheat seedlings; settings: 200 ppm, 100 = 100% disease control, 0 = no control relative to controls; for pest or weed control at 200 ppm: Parastagonospora nodorum, 216 h, read-out: Test C disease control rating
Method in brief: (§1)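 Two spray concentrations are used, 40 ppm and 200 ppm, the latter matching a rate of 500 g/ha, applied until run-off. The carrier is half acetone, half purified water with 250 ppm surfactant, and acetone for initial dissolution makes up 3% of the volume.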

[1] = tested on: Puccinia recondita f. sp. tritici; assay: Test B: wheat leaf rust, preventive spray on wheat seedlings; settings: 200 ppm, 100 = 100% disease control, 0 = no control relative to controls; for pest or weed control at 200 ppm: Puccinia recondita, 192 h, read-out: Test B disease control rating
Method in brief: as §1

Botrytis cinerea = assay: Test F: tomato Botrytis, preventive spray on tomato seedlings; settings: 200 ppm, 100 = 100% disease control, 0 = no control relative to controls; for pest or weed control at 200 ppm: Botrytis cinerea, 120 h, read-out: Test F disease control rating
Method in brief: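 Preventive run-off spray onto tomato seedlings at 200 ppm (equivalent to 500 g/ha) or 40 ppm. Suspensions: compound predissolved in acetone at 3% of final volume, then taken up in acetone/purified water 50/50 containing 250 ppm Trem® 014 surfactant.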

Septoria tritici = assay: Test D: wheat leaf blotch, preventive spray on wheat seedlings; settings: 200 ppm, 100 = 100% disease control, 0 = no control relative to controls; for pest or weed control at 200 ppm: Zymoseptoria tritici, 504 h, read-out: Test D disease control rating
Method in brief: as §1

[2] = tested on: Colletotrichum orbiculare; assay: Test I: cucumber Colletotrichum anthracnose, preventive spray on cucumber seedlings; settings: 100 = 100% disease control, 0 = no control relative to controls; for pest or weed control at 200 ppm: Colletotrichum orbiculare, 144 h, read-out: Test I disease control rating; for Test I disease control rating: 200 ppm
Method in brief: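 Preventive foliar spray to run-off on cucumber seedlings, at 200 ppm (stated as equal to 500 g/ha) or 40 ppm. Test suspensions were made in acetone/water 50/50 containing 250 ppm Trem 014, after first dissolving compound in acetone at 3% of final volume.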

[3] = tested on: Erysiphe graminis f. sp. tritici; assay: Test A: wheat powdery mildew, preventive spray on wheat seedlings; settings: 200 ppm, 100 = 100% disease control, 0 = no control relative to controls; for pest or weed control at 200 ppm: Blumeria graminis, 192 h, read-out: Test A disease control rating
Method in brief: as §1

Uncinula necator = assay: Test N: grape powdery mildew, preventive spray on grape seedlings; settings: 100 ppm (100 g/ha, 1000 L/ha), inoculated the following day, 100 = 100% disease control, 0 = no control relative to controls
Text: (§2) General protocol for preparing test suspensions for Tests A-R: The test compounds were first dissolved in acetone in an amount equal to 3% of the final volume and then suspended at the desired concentration (in ppm) in acetone and purified water (50/50 mix) containing 250 ppm of the surfactant Trem® 014 (polyhydric alcohol esters). The resulting test suspensions were then used in tests A-R. In Tests A-M, compounds were sprayed as a 200 ppm test suspension (equivalent to a rate of 500 g/ha) or as a 40 ppm test suspension to the point of runoff on the test plants. In Tests N-R, compounds were sprayed as a 100 g/ha test suspension (equivalent to a rate of 100 ppm) on the test plants at an application volume of 1000 L/ha. The test suspension was sprayed on grape seedlings.

Fusarium graminearum = assay: whole plant or invertebrate; settings: for pest or weed control at 200 ppm: Fusarium graminearum, in Triticum aestivum, 192 h, read-out: Test E disease control rating; for Test E disease control rating: 200 ppm, 100 = 100% disease control, 0 = no control relative to controls
Venturia inaequalis = assay: Test O: apple scab, preventive spray on apple seedlings; settings: 100 ppm (100 g/ha, 1000 L/ha), inoculated the following day, 100 = 100% disease control, 0 = no control relative to controls
Text: as §2, with “apple” for “grape”

Plasmopara viticola = assay: Test R: grape downy mildew, preventive spray on grape seedlings; settings: 100 ppm (100 g/ha, 1000 L/ha), inoculated the following day, 100 = 100% disease control, 0 = no control relative to controls
Text: as §2, with “seedlings. The following day the seedlings were inoculated with a spore suspension of Plasmopara viticola (the causal agent of grape downy mildew) and incubated in a saturated atmosphere at 20° C. for 24 h, then moved to a growth chamber at 20° C. for 7 days, after which time the test units were placed back into a saturated atmosphere at 20° C. for 24 h. Upon removal, disease ratings were made.” for “seedlings.”

Alternaria solani = assay: Test H: tomato early blight, preventive spray on seedlings; settings: 200 ppm; 100 = 100% disease control, 0 = no control relative to controls
Method in brief: as §1

Row | Structure (SMILES) | pest or weed control at 200 ppm (Septoria nodorum) | pest or weed control at 200 ppm [1] | pest or weed control at 200 ppm (Botrytis cinerea) | pest or weed control at 200 ppm (Septoria tritici) | pest or weed control at 200 ppm [2] | pest or weed control at 200 ppm [3] | Test N disease control rating (Uncinula necator) | pest or weed control at 200 ppm (Fusarium graminearum) | Test O disease control rating (Venturia inaequalis) | Test R disease control rating (Plasmopara viticola) | Test C disease control rating (Septoria nodorum) | Test B disease control rating [1] | Test F disease control rating (Botrytis cinerea) | Test D disease control rating (Septoria tritici) | Test H disease control rating (Alternaria solani) | Test E disease control rating (Fusarium graminearum) | Test I disease control rating [2] | Test A disease control rating [3]
1 | COCC(C)Nc1nccc(-c2ncnc(Nc3cccc(Cl)c3)n2)n1 (stereo not drawn) [Compound 1, N-(3-chlorophenyl)-4-[2-[(2-methoxy-1-methylethyl)amino]-4-pyrimidinyl]-1,3,5-triazine-2-amine] | 100% | 96% | 98% | 0% | 99% | 76% | 90% | 98% | 78% | 26% |  |  |  |  |  |  |  | 
2 | COC[C@H](C)Nc1nccc(-c2ncnc(Nc3cccc(Br)c3)n2)n1 [Compound 11] |  |  |  |  |  |  | 85% |  | 92% | 27% | 100% | 96% | 96% | 0% | 98% | 99% |  | 
3 | COC[C@H](C)Nc1nccc(-c2ncnc(Nc3cccc(Cl)c3)n2)n1 [Compound 16] |  |  |  |  |  |  | 99% |  | 76% | 40% | 99% | 99% | 96% | 71% | 98% | 99% | 97% | 
4 | COC[C@H](C)Nc1nccc(-c2ncnc(Nc3cccc(C)c3)n2)n1 [Compound 19] |  |  |  |  |  |  | 95% |  | 33% | 73% | 100% | 97% | 99% | 87% | 93% | 97% | 99% | 
5 | COC[C@H](C)Nc1nccc(-c2ncnc(Nc3cccc([N+](=O)[O-])c3)n2)n1 [Compound 21] |  |  |  |  |  |  | 57% |  | 99% | 79% | 97% | 99% | 72% | 13% |  | 87% | 96% | 
6 | COC[C@H](C)Nc1nccc(-c2ncnc(Nc3ccc(C)c(F)c3)n2)n1 [Compound 25] |  |  |  |  |  |  | 99% |  | 59% | 86% | 100% | 99% | 63% | 16% | 99% | 99% |  | 
7 | COC[C@H](C)Nc1nccc(-c2ncnc(Nc3ccc(C)c([N+](=O)[O-])c3)n2)n1 [Compound 26] |  |  |  |  |  |  | 69% |  | 96% | 96% | 100% | 98% | 17% | 2% | 91% | 98% |  | 
8 | Fc1cccc(Nc2cc(-c3ccnc(NC4CCOCC4)n3)ccn2)c1 [Compound 67, 4-[2-[(3-fluorophenyl)amino]-4-pyridinyl]-N-(tetrahydro-2H-pyran-4-yl)-2-pyrimidinamine] | 99% | 97% | 95% | 52% | 79% | 17% | 55% | 0% | 73% | 94% |  |  |  |  |  |  |  | 
9 | Clc1cccc(Cl)c1Nc1cc(-c2ccnc(NC3CCOCC3)n2)ccn1 [Compound 81] |  |  |  |  |  |  | 97% |  | 69% | 97% | 99% | 100% | 99% | 92% |  | 97% | 91% | 95%
10 | Cc1cc(C)c(Nc2cc(-c3ccnc(NC4CCOCC4)n3)ccn2)c(Cl)c1 [Compound 90] |  |  |  |  |  |  | 98% |  |  | 98% | 100% | 99% | 99% | 47% |  | 100% | 93% | 98%
11 | Clc1cc(Cl)c(Nc2cc(-c3ccnc(NC4CCOCC4)n3)ccn2)c(Cl)c1 [Compound 99] |  |  |  |  |  |  | 30% |  | 83% | 99% | 100% | 95% | 0% | 30% |  | 92% | 0% | 0%
